# Test results from ChEMBL document CHEMBL1159055, “Oxime carbamate--discovery of a series of novel FAAH inhibitors” (Bioorg Med Chem Lett, 2010).
# The source made the active and inactive calls. No cut-off for these calls is given here.
# Test system: Rattus norvegicus
# Assay: Antinociceptive activity in iv dosed Sprague-Dawley rat assessed inhibition of thermal stimulus-induced hind paw withdrawal after 32 mins in presence of anandamide
# Assay type: functional, organism-based
row,SMILES,Activity
1,CCCCOc1ccc(NC(=O)O/N=C/c2ccc(F)cc2)cc1,Dose-dependent effect

# Test system: Rattus norvegicus
# Assay: Antinociceptive activity in Sprague-Dawley rat assessed inhibition of thermal stimulus-induced hind paw withdrawal at 1 mg/kg, iv after 32 mins
# Assay type: functional, organism-based
# Design: dose 1 mg/kg
row,SMILES,Activity
1,CCCCOc1ccc(NC(=O)O/N=C/c2ccc(F)cc2)cc1,inactive

# Molecular target: T1, Fatty-acid amide hydrolase 1 (Homo sapiens, UniProt O00519)
# T1 sequence (O00519 whole entry): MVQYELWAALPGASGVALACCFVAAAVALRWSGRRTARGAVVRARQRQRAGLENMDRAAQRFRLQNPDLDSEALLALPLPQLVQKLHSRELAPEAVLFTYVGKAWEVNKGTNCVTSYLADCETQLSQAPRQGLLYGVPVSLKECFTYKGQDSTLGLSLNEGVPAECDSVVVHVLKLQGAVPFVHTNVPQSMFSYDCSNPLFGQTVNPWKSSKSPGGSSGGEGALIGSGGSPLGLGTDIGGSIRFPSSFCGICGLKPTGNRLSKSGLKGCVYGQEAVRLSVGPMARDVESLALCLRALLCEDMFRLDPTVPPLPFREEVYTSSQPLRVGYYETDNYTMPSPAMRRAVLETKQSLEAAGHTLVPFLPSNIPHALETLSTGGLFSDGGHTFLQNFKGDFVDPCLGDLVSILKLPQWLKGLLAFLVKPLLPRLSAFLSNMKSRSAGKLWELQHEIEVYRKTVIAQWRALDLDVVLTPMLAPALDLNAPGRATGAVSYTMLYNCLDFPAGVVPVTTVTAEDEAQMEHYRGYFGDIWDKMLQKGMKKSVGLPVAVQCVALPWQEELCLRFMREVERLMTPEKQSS
# Assay: Competitive inhibition of human FAAH expressed in human H4 cells
# Assay type: cell-based
row,SMILES,Ki [nM]
1,CCCCOc1ccc(NC(=O)O/N=C/c2ccc(F)cc2)cc1,30

# Molecular target: T2, Fatty-acid amide hydrolase 1 (Homo sapiens) (UniProt O00519)
# T2 sequence (whole entry): T1 sequence (O00519 whole entry)
# Assay: Inhibition of human FAAH-mediated anandamide hydrolysis expressed in human H4 cells assessed as reduction in initial reaction rate at 5 nM by fluorescence assay relative to vehicle control
# Assay type: cell-based
# Design: scale not given: the % may be the effect or the level left
row,SMILES,Activity [%]
1,CCCCOc1ccc(NC(=O)O/N=C/c2ccc(F)cc2)cc1,25

# Test system: Rattus norvegicus
# Assay: Antinociceptive activity in Sprague-Dawley rat assessed inhibition of thermal stimulus-induced hind paw withdrawal at 10 mg/kg, iv after 32 mins
# Assay type: functional, organism-based
# Design: dose 10 mg/kg
row,SMILES,Activity
1,CCCCOc1ccc(NC(=O)O/N=C/c2ccc(F)cc2)cc1,inactive

# Molecular target: T1, Fatty-acid amide hydrolase 1
# Assay: Inhibition of human FAAH expressed in human H4 cells
# Assay type: cell-based
row,SMILES,IC50 [nM]
1,CCCOc1ccc(NC(=O)O/N=C/c2ccccc2)cc1,9.3
2,CCCCCCCOc1ccc(NC(=O)ON=C(C)C)cc1,8.4
3,CCCCCCCCCOc1ccc(NC(=O)ON=C(C)C)cc1,2.1
4,CCCCCCCCCCOc1ccc(NC(=O)O/N=C/c2ccccc2)cc1,0.35
5,CCCCCCCCOc1ccc(NC(=O)O/N=C/c2ccccc2)cc1,0.43
6,Cc1nc(-c2ccccc2)c(-c2ccccc2)n1CCCCCCNC(=O)Oc1ccccc1F,1.7
7,CCCCCCCCCCCCOc1ccc(NC(=O)O/N=C/c2ccc(F)cc2)cc1,2.1
8,CCCCCCCCCCOc1ccc(NC(=O)O/N=C/c2cccnc2)cc1,0.35
9,CCCCCOc1ccc(NC(=O)O/N=C/c2ccccc2)cc1,3.5
10,CCCCCCCCCOc1ccc(NC(=O)O/N=C/c2ccccc2)cc1,0.25
11,CCCCCCCOc1ccc(NC(=O)Oc2ccccc2F)cc1,28
12,CCCCOc1ccc(CNC(=O)Oc2cccc(Cl)c2)cc1,12
13,CCCCCCCCCOc1ccc(NC(=O)O/N=C/c2ccc(F)cc2)cc1,0.2
14,CCCCCCCCOc1ccc(NC(=O)ON=C(C)C)cc1,2.4
15,CCCCCCOc1ccc(NC(=O)O/N=C/c2cccnc2)cc1,8.3
16,CCCCCOc1ccc(NC(=O)O/N=C/c2cccnc2)cc1,6.1
17,CCCCCCCCCCOc1ccc(NC(=O)ON=C(C)C)cc1,2.2
18,CCCCCCCCCCCOc1ccc(NC(=O)O/N=C/c2ccccc2)cc1,0.45
19,CCCCCCCCOc1ccc(NC(=O)Oc2ccccc2)cc1,5.4
20,CCCCOc1ccc(NC(=O)O/N=C/c2ccc(F)cc2)cc1,2.2
21,CCCCCCCCOc1ccc(NC(=O)O/N=C/c2ccc(F)cc2)cc1,0.27
22,CCCCOc1ccc(C(CC)NC(=O)Oc2ccccc2F)cc1 (stereo not drawn),7.7
23,CCOc1ccc(NC(=O)O/N=C/c2cccnc2)cc1,150
24,CCCCCCCCCCCCOc1ccc(NC(=O)O/N=C/c2ccccc2)cc1,2.4
25,COc1ccc(NC(=O)O/N=C/c2ccccc2)cc1,290
26,CCCCOc1ccc(C(CC)NC(=O)Oc2ccc(OC)cc2)cc1 (stereo not drawn),12

row,SMILES,IC50 [nM]
1,CCCCCCCCCCCOc1ccc(NC(=O)O/N=C/c2ccc(F)cc2)cc1,0.4
2,CCCCCCCCCOc1ccc(NC(=O)O/N=C/c2cccnc2)cc1,0.65
3,CCCCOc1ccc(CNC(=O)ON=C(C)C)cc1,570
4,CCCCOc1ccc(CNC(=O)Oc2ccc(F)cc2F)cc1,8.7
5,CCCCOc1ccc(NC(=O)Oc2ccc(F)cc2)cc1,120
6,CCCCCCCOc1ccc(NC(=O)Oc2ccccc2)cc1,8.6
7,CCCCCCOc1ccc(NC(=O)ON=C(C)C)cc1,18
8,CCCCOc1ccc(C(CC)NC(=O)Oc2cccc(C(F)(F)F)c2)cc1 (stereo not drawn),51
9,CCCCOc1ccc(NC(=O)ON=C(C)C)cc1OC,11000
10,CCCCOc1ccc(C(CC)NC(=O)Oc2ccc(F)cc2F)cc1 (stereo not drawn),21
11,CCCCOc1ccc(C(CC)NC(=O)Oc2cccc(N(C)C)c2)cc1 (stereo not drawn),54
12,CCCCCCCCCCOc1ccc(NC(=O)Oc2ccccc2)cc1,1.4
13,CCCCCCOc1ccc(NC(=O)Oc2ccccc2F)cc1,710
14,CCCCOc1ccc(CNC(=O)Oc2cccc(C(F)(F)F)c2)cc1,40
15,CCCCCCCOc1ccc(NC(=O)O/N=C/c2ccc(F)cc2)cc1,2.3
16,CCCCOc1ccc(CNC(=O)Oc2ccc(F)cc2)cc1,4.6
17,CCCCCCCCCCCOc1ccc(NC(=O)Oc2ccccc2F)cc1,15
18,CCCCCCCOc1ccc(NC(=O)O/N=C/c2ccccc2)cc1,8.6
19,CCCCOc1ccc(NC(=O)O/N=C/c2cccnc2)cc1,14
20,CCOc1ccc(NC(=O)O/N=C/c2ccc(F)cc2)cc1,46
21,CCCCOc1ccc(C(CC)NC(=O)Oc2ccccc2)cc1 (stereo not drawn),12
22,CCCCCCOc1ccc(NC(=O)Oc2ccccc2)cc1,31
23,CCCCOc1ccc(CNC(=O)Oc2cccnc2)cc1,6.1
24,CCCCOc1ccc(NC(=O)Oc2ccccc2F)cc1,340
25,CCCCCCCCCCOc1ccc(NC(=O)O/N=C/c2ccc(F)cc2)cc1,0.25
26,CCCCCCCCCCCCOc1ccc(NC(=O)Oc2ccccc2)cc1,1.8

row,SMILES,IC50 [nM]
1,CCOc1ccc(NC(=O)ON=C(C)C)cc1,730
2,CCCCOc1ccc(C(CC)NC(=O)Oc2ccc(F)cc2)cc1 (stereo not drawn),12
3,CCCCCCCCCCCCOc1ccc(NC(=O)O/N=C/c2cccnc2)cc1,0.35
4,CCCCCCCCCCOc1ccc(NC(=O)Oc2ccccc2F)cc1,9.2
5,CCCCCCCCCCCCOc1ccc(NC(=O)Oc2ccccc2F)cc1,13
6,O=C(Nc1ccc(Oc2ccccc2)cc1)Oc1ccccc1F,1300
7,CCCCCCCCCCCOc1ccc(NC(=O)Oc2ccccc2)cc1,1
8,CCCCOc1ccc(CNC(=O)Oc2ccccc2F)cc1,9.2
9,CCCCCCCCCCCOc1ccc(NC(=O)ON=C(C)C)cc1,4.9
10,CCCCCCOc1ccc(NC(=O)O/N=C/c2ccccc2)cc1,8
11,CCCOc1ccc(NC(=O)ON=C(C)C)cc1,210
12,CCCOc1ccc(NC(=O)O/N=C/c2cccnc2)cc1,29
13,CCCCCCCOc1ccc(NC(=O)O/N=C/c2cccnc2)cc1,2.3
14,CCCCOc1cccc(NC(=O)ON=C(C)C)c1,6300
15,CCCCCOc1ccc(NC(=O)ON=C(C)C)cc1,28
16,CCCCCCCCOc1ccc(NC(=O)Oc2ccccc2F)cc1,19
17,CCCCCOc1ccc(NC(=O)O/N=C/c2ccc(F)cc2)cc1,1.8
18,CCCCCCCCCCCCOc1ccc(NC(=O)ON=C(C)C)cc1,5
19,CCCCOc1ccc(NC(=O)O/N=C/c2ccccc2)cc1,8.5
20,CCCCOc1ccc(NC(=O)ON=C(C)C)cc1,28
21,CCc1ccc(-c2ccc(NC(=O)Oc3ccccc3F)cc2)cc1,810
22,CCOc1ccc(NC(=O)O/N=C/c2ccccc2)cc1,81
23,CCCCCCCCOc1ccc(NC(=O)O/N=C/c2cccnc2)cc1,0.8
24,CCCCCCCCCCCOc1ccc(NC(=O)O/N=C/c2cccnc2)cc1,0.15
25,CCCCCCOc1ccc(NC(=O)O/N=C/c2ccc(F)cc2)cc1,6.5
26,CCCOc1ccc(NC(=O)O/N=C/c2ccc(F)cc2)cc1,13
